Assay results as given in patent US20060069132A1, “Azolecarboxamide herbicides” (priority 2004, published 2006).

Assays:
[1] = system: barnyardgrass; assay: Test B pre-/postemergence herbicide test; type: in vivo, Echinochloa crus-galli; details: for Barnyardgrass plant response rating: postemergence, scale 0 (no effect) to 100 (complete control)
Method in brief: (§1)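 Flooded paddy rice and barnyardgrass were treated at the 2-leaf stage; upland plantings received compound either on sown seed or on 1- to 4-leaf seedlings. All were kept 13–15 days in a greenhouse and scored visually, 0–100, relative to untreated plants.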

[2] = system: Surinam grass; assay: Test B pre-/postemergence herbicide test; type: in vivo, Urochloa decumbens; details: for Surinam Grass plant response rating: postemergence
Method in brief: (§2)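 Evaluation is visual, comparing treated with control plants on a scale where 0 means no effect and 100 means full control. Treatments were preemergence, or postemergence on seedlings 2–18 cm tall, and held 13–15 days in the greenhouse.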

[3] = system: cocklebur; assay: Test B pre-/postemergence herbicide test; type: in vivo, Xanthium strumarium; details: for Cocklebur plant response rating: postemergence, scale 0 (no effect) to 100 (complete control)
Method in brief: as §1

[4] = system: corn; assay: Test B pre-/postemergence herbicide test; type: in vivo, Zea mays; details: for Corn plant response rating: postemergence
Method in brief: as §2

[5] = system: large crabgrass; assay: Test B pre-/postemergence herbicide test; type: in vivo, Digitaria sanguinalis; details: for Crabgrass, Large plant response rating: postemergence
Method in brief: as §2

[6] = system: giant foxtail; assay: Test B pre-/postemergence herbicide test; type: in vivo, Setaria faberi; details: for Foxtail, Giant plant response rating: postemergence
Method in brief: as §2

[7] = system: lambsquarters; assay: Test B pre-/postemergence herbicide test; type: in vivo, Chenopodium album; details: for Lambsquarters plant response rating: postemergence
Method in brief: as §2

[8] = system: morningglory; assay: Test B pre-/postemergence herbicide test; type: in vivo, Ipomoea coccinea; details: for Morningglory plant response rating: postemergence
Method in brief: as §1

[9] = system: pigweed; assay: Test B pre-/postemergence herbicide test; type: in vivo, Amaranthus retroflexus; details: for Pigweed plant response rating: postemergence
Method in brief: as §2

[10] = system: rice; assay: Test B pre-/postemergence herbicide test; type: in vivo, Oryza sativa; details: 0 = no effect, 100 = complete control, preemergence
Method in brief: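 Plants compared with untreated controls 13–15 days post-treatment and given a visual 0–100 injury score. Applications: preemergence to seeds; postemergence at 1- to 4-leaf (2–18 cm); paddy species flooded, 2-leaf stage. Vehicle non-phytotoxic, surfactant included.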

[11] = system: velvetleaf; assay: Test B pre-/postemergence herbicide test; type: in vivo, Abutilon theophrasti; details: for Velvetleaf plant response rating: postemergence
Method in brief: as §2

[12] = system: blackgrass; assay: Test B postemergence herbicide test; type: in vivo, Alopecurus myosuroides; details: postemergence, visual rating, scale 0 (no effect) to 100 (complete control)
Method in brief: (§3)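 After treating 2-leaf paddy plants or 2–18 cm postemergence plants (1 to 4 leaves) with formulated chemical, researchers kept them in a greenhouse for 13–15 days. Effects were judged visually versus controls: 0 indicates none, 100 total control.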

[13] = system: wheat; assay: Test B postemergence herbicide test; type: in vivo, Triticum aestivum; design: key to Wheat plant response rating: 0 = no effect, 100 = complete control; details: postemergence
Method in brief: (§4)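 Plants grow to 1- to 4-leaf stage (2–18 cm) for postemergence spraying, or to 2-leaf stage for the paddy test. Formulated compound is applied. Greenhouse holding lasts 13–15 days. Response is scored visually relative to controls, 0 no effect to 100 complete control; a dash means no result.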

[14] = system: wild oat; assay: Test B postemergence herbicide test; type: in vivo, Avena fatua; details: postemergence
Method in brief: as §4

[15] = system: rice; assay: Test B flooded paddy test; type: in vivo, Oryza sativa; details: 1000 g ai/ha, scale 0 to 100 (0 no effect, 100 complete control)
Method in brief: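 Each value is a visual 0–100 response rating taken against controls 13 to 15 days after treatment in the greenhouse. Plants received formulated chemical postemergence at the 1- to 4-leaf stage or, in flooded paddy, at the 2-leaf stage.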

[16] = system: small flower umbrella sedge; assay: Test B flooded paddy test; type: in vivo, Cyperus difformis; details: 1000 g ai/ha, scale 0 to 100 (0 no effect, 100 complete control)
Method in brief: as §3

[17] = system: ducksalad; assay: Test B flooded paddy test; type: in vivo, Heteranthera limosa; details: 1000 g ai/ha, scale 0 to 100 (0 no effect, 100 complete control)
Method in brief: as §3

[18] = system: barnyardgrass; assay: Test B flooded paddy test; type: in vivo, Echinochloa crus-galli; details: 1000 g ai/ha, scale 0 to 100 (0 no effect, 100 complete control)
Method in brief: as §3

[19] = system: rice; assay: Test C flooded paddy test; type: in vivo, Oryza sativa
Method in brief: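 Postemergence sprays applied to plants 2 to 18 cm tall (1- to 4-leaf stage); paddy species grown to 2-leaf stage under flooding. After 12 to 14 days in greenhouse, visual rating versus untreated controls on 0–100 scale (0 no effect, 100 complete control).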

[20] = system: smallflower umbrella sedge; assay: Test C flooded paddy test; type: in vivo, Cyperus difformis
[21] = system: ducksalad; assay: Test C flooded paddy test; type: in vivo, Heteranthera limosa
[22] = system: barnyardgrass; assay: Test C flooded paddy test; type: in vivo, Echinochloa crus-galli
Method in brief: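 Visual rating, 0 (no effect) to 100 (complete control), vs. controls at 12–14 d in greenhouse. Postemergence: 1–4-leaf plants, 2–18 cm. Paddy: flooded, barnyardgrass at 2-leaf stage.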

[23] = 125 g ai/ha, 0 = no effect, 100 = complete control, preemergence
[24] = 500 g ai/ha, visual rating, 0 = no effect, 100 = complete control, preemergence
[25] = 125 g ai/ha, visual rating, scale 0 (no effect) to 100 (complete control)
[26] = 500 g ai/ha, scale 0 to 100, 0 is no effect, 100 is complete control
[27] = 125 g ai/ha, scale 0 to 100 (0 no effect, 100 complete control)
[28] = 250 g ai/ha, scale of 0 to 100, 0 is no effect, 100 is complete control
[29] = 500 g ai/ha, visual rating after 12 to 14 days, scale 0 to 100 (0 no effect, 100 complete control)

`CCn1nc(C(C)(C)C)cc1C(=O)Nc1cccc(C(=O)N2CCOCC2)n1` [Compound 247] was tested, and the “Barnyardgrass plant response rating (0 to 100 scale)” value [1, 23] was 30, the “Plant response rating, Barnyardgrass” value [1, 24] was 80 and the “Barnyardgrass plant response rating” value ([1]; 125 g ai/ha, visual rating) was 0. The “Barnyardgrass plant response rating” value ([1]; 500 g ai/ha, visual rating) was 10, the “Surinam Grass plant response rating (0 to 100 scale)” value [2, 23] was 20 and the “Plant response rating, Surinam Grass” value [2, 24] was 50. The “Surinam Grass plant response rating” value [2, 25] was 10, the “Surinam Grass plant response rating” value [2, 26] was 20 and the “Cocklebur plant response rating (0 to 100 scale)” value [3, 23] was 0. The “Plant response rating, Cocklebur” value [3, 24] was 0, the “Cocklebur plant response rating” value ([3]; 125 g ai/ha, visual rating) was 0 and the “Cocklebur plant response rating” value ([3]; 500 g ai/ha, visual rating) was 30. The “Corn plant response rating (0 to 100 scale)” value [4, 23] was 0, the “Plant response rating, Corn” value [4, 24] was 30 and the “Corn plant response rating” value [4, 25] was 0. The “Corn plant response rating” value [4, 26] was 20, the “Crabgrass, Large plant response rating (0 to 100 scale)” value [5, 23] was 20 and the “Plant response rating, Crabgrass, Large” value [5, 24] was 80. The “Crabgrass, Large plant response rating” value [5, 25] was 10, the “Crabgrass, Large plant response rating” value [5, 26] was 10 and the “Foxtail, Giant plant response rating (0 to 100 scale)” value [6, 23] was 10. The “Plant response rating, Foxtail, Giant” value [6, 24] was 70, the “Foxtail, Giant plant response rating” value [6, 25] was 10 and the “Foxtail, Giant plant response rating” value [6, 26] was 20. The “Lambsquarters plant response rating (0 to 100 scale)” value [7, 23] was 80, the “Plant response rating, Lambsquarters” value [7, 24] was 100 and the “Lambsquarters plant response rating” value [7, 25] was 60. The “Lambsquarters plant response rating” value [7, 26] was 70, the “Morningglory plant response rating (0 to 100 scale)” value [8, 23] was 0 and the “Plant response rating, Morningglory” value [8, 24] was 10. For the same molecule, the “Morningglory plant response rating” value [8, 25] was 20, the “Morningglory plant response rating” value [8, 26] was 30 and the “Pigweed plant response rating (0 to 100 scale)” value [9, 23] was 100. The “Plant response rating, Pigweed” value [9, 24] was 100, the “Pigweed plant response rating” value [9, 25] was 60 and the “Pigweed plant response rating” value [9, 26] was 60. For the same molecule, the “Rice plant response rating (0 to 100 scale)” value ([10]; 125 g ai/ha) was 10, the “Plant response rating, Rice” value ([10]; 500 g ai/ha, visual rating) was 40 and the “Velvetleaf plant response rating (0 to 100 scale)” value [11, 23] was 20. The “Plant response rating, Velvetleaf” value [11, 24] was 100, the “Velvetleaf plant response rating” value [11, 25] was 30 and the “Velvetleaf plant response rating” value [11, 26] was 70. For the same molecule, the “Blackgrass plant response rating” value ([12]; 125 g ai/ha) was 0, the “Blackgrass plant response rating” value ([12]; 500 g ai/ha) was 0 and the “Wheat plant response rating” value [13, 25] was 0. The “Wheat plant response rating” value [13, 26] was 0, the “Oat, Wild plant response rating” value [14, 25] was 0 and the “Oat, Wild plant response rating” value [14, 26] was 10. The “Rice plant response rating” value [15] was 80, the “Sedge, Umbrella plant response rating” value [16] was 70 and the “Ducksalad plant response rating” value [17] was 80. The “Barnyardgrass plant response rating” value [18] was 70, the “Rice plant response rating” value ([19]; 62 g ai/ha, scale 0 to 100) was 0 and the “Rice plant response rating” value [19, 27] was 0. The “Rice plant response rating” value [19, 28] was 20, the “Plant response rating, Rice” value [19, 29] was 75 and the “Sedge, Umbrella plant response rating” value ([20]; 62 g ai/ha, scale 0 to 100) was 0. For the same molecule, the “Sedge, Umbrella plant response rating” value [20, 27] was 0, the “Sedge, Umbrella plant response rating” value [20, 28] was 15 and the “Plant response rating, Sedge, Umbrella” value [20, 29] was 75. The “Ducksalad plant response rating” value ([21]; 62 g ai/ha, scale 0 to 100) was 0, the “Ducksalad plant response rating” value [21, 27] was 0 and the “Ducksalad plant response rating” value [21, 28] was 0. The “Plant response rating, Ducksalad” value [21, 29] was 80, the “Barnyardgrass plant response rating” value ([22]; 62 g ai/ha, scale 0 to 100 (0 no effect, 100 complete control)) was 0 and the “Barnyardgrass plant response rating” value [22, 27] was 0. For the same molecule, the “Barnyardgrass plant response rating” value [22, 28] was 0 and the “Plant response rating, Barnyardgrass” value [22, 29] was 0.
